Test results published in patent US20130090329A1, “Methods and Compositions for the Treatment of Psychotic Disorders Through the Identification of the Olanzapine Poor Response Predictor Genetic Signature” (SUREGENE, LLC, priority 2011, published 2013).
Marks after values point to notes of the source that are not given here.

How the values were obtained:
[1] = test system: patients suffering from schizophrenia and related disorders; test: CATIE study: worsening of symptoms (LOCF delta PANSS ≧0%) by OPRP status; assay type: in vivo, human; details: for Worsening: delta PANSS ≧0%
Method: (§1) A total of 738 subjects consented to provide DNA for genetic study. […] Only retrospective genetic analyses, judged to be exempt from human studies requirements by an IRB, were conducted in the current study. For the genetic analyses presented herein, the inventors combined and evaluated drug response data for both Phase I and Phase IB of the CATIE study. All tested patients were studied using well established clinical endpoints comparing baseline, intermediate, and last observation carried forward (LOCF) for the PANSS scores using CATIE data. LOCF analysis is a commonly used clinical endpoint for clinical trials for neuropsychiatric drugs, with particular changes in PANSS scores being used to indicate clinically significant response (Leucht et al., 2009).
The inventors also examined the impact of the OPRP status on whether patients' symptoms actually got worse when treated with olanzapine. This is an important safety consideration for antipsychotic drugs response, and failure of a drug to display the desired clinical response on a specific subset of patients could impact the drug label, being contraindicated for a particular subset of patients (see Example 5: “Risk Management Involving the OPRP Genetic Test). […]

[2] = among antipsychotic medications; cited from earlier work
[3] = test system: patients suffering from schizophrenia and related disorders; test: CATIE study: percent change in total PANSS from baseline to LOCF, segmented by OPRP genetic signature status; assay type: in vivo, human; details: for Effect size (mean difference / standard deviation): CATIE
From the text: Genotype and phenotype data for the CATIE trial were recently made available to qualified researchers through the NIMH Center for Collaborative Genetic Studies on Mental Disorders. The sample consisted of a total of 738 patients. For the present study, the inventors assigned OPRP status to 628 subjects, including 411 subjects of self-reported European ancestry and 217 subjects of self-reported African ancestry. Further details on the patient population are described in the study by Sullivan and coworkers (Sullivan et al., 2008). The CATIE SNP genotype data evaluated included a total of 492,900 SNPs located throughout the genome.
The design of the CATIE study has been described in detail by others (Lieberman et al., 2005; Stroup et al., 2003). […] Subjects that failed Phase I treatment with the typical antipsychotic perphenazine were treated differently than those subjects that failed phase I treatment with an atypical antipsychotic. Instead of entering into Phase II of the trial, subjects who switched from perphenazine entered Phase IB. […] Subjects who failed Phase IB then entered Phase II.
as §1
Using the clinical data from the CAIE trial, the inventors derived several different metrics used for quantifying response in clinical trials of antipsychotic medications. The most commonly used psychometric instrument is the Positive and Negative Syndrome Scale (PANSS), a 30-item semi-quantitative instrument scored by clinical professionals (Kay et al., 1987). The greater the decrease in PANSS score, the better the clinical response. The most direct measure of clinical response is absolute change in PANSS score. In addition to absolute change, the improvement is often reported as a percentage change from baseline PANSS score.
To examine the relationship of genotypes to drug response the inventors used the publically available PLINK software (Purcell et al., 2007; available on the world wide web at pngu.mgh.harvard.edu/purcell/plink/) and Helix tree (Version 6.4.1; Golden Helix, Bozeman, Mont.). The inventors used Last observation Carry Forward (LOCF) delta PANSS values as a measure of response to antipsychotic treatment. […] The inventors refined the test further by conducting association analysis on using only those subjects that comprised the TT genotype of rs11960832.
As mentioned previously, the mean change in absolute or percent PANSS provides an important measure of efficacy in patients undergoing antipsychotic treatments. Indeed, many pivotal trials in the psychosis field used absolute and/or percentage change in PANSS Score as the primary endpoint (Leucht et al., 2009).

[4] = test system: patients suffering from schizophrenia and related disorders; test: CATIE study: categorical responders (change in total PANSS ≦−10%, LOCF) by OPRP status; assay type: in vivo, human; details: for Responders: change in total PANSS ≦−10%
Method: A total of 738 subjects consented to provide DNA for genetic study. Details regarding SNP genotyping and quality control have been recently published (Sullivan et al., 2008). Only retrospective genetic analyses, judged to be exempt from human studies requirements by an IRB, were conducted in the current study. For the genetic analyses presented herein, the inventors combined and evaluated drug response data for both Phase I and Phase IB of the CATIE study. All tested patients were studied using well established clinical endpoints comparing baseline, intermediate, and last observation carried forward (LOCF) for the PANSS scores using CATIE data. LOCF analysis is a commonly used clinical endpoint for clinical trials for neuropsychiatric drugs, with particular changes in PANSS scores being used to indicate clinically significant response (Leucht et al., 2009). […] As described above CATIE patients were studied using well established clinical endpoints comparing baseline, intermediate, and last observation carried forward (LOCF) for the PANSS scores.

[5] = Caucasian patients, OPRP Negative, LOCF
[6] = Caucasian patients, OPRP Positive, LOCF
[7] = OPRP Negative subjects, CATIE Phase I and IB, more negative = greater improvement
[8] = OPRP Positive subjects, CATIE Phase I and IB, more negative = greater improvement

SMILES | Incidence of metabolic side-effects [2] | Number of individuals with change in total PANSS ≦−10% (responders) ([4]; OPRP Negative) | Number of individuals with change in total PANSS ≧−10% (non-responders) ([4]; OPRP Negative) | Responders ([4]; OPRP Negative) | Number of individuals with change in total PANSS ≦−10% (responders) ([4]; OPRP Positive) | Number of individuals with change in total PANSS ≧−10% (non-responders) ([4]; OPRP Positive) | Responders ([4]; OPRP Positive) | Number of individuals with delta PANSS ≦0% (non-worsening) ([1]; OPRP Negative, LOCF) | Number of individuals with delta PANSS ≧0% (worsening symptoms) ([1]; OPRP Negative, LOCF) | Worsening ([1]; OPRP Negative, LOCF) | Number of individuals with delta PANSS ≦0% (non-worsening) ([1]; OPRP Positive, LOCF) | Number of individuals with delta PANSS ≧0% (worsening symptoms) ([1]; OPRP Positive, LOCF) | Worsening ([1]; OPRP Positive, LOCF) | DELTA PANSS % (mean change in PANSS score from baseline to LOCF) [3, 7] | DELTA PANSS % (mean change in PANSS score from baseline to LOCF) [3, 8] | also measured
CN1CCN(C2=Nc3cc(Cl)ccc3Nc3ccccc32)CC1 [Clozapine] | greatest incidence of metabolic side-effects | – | – | – | – | – | – | – | – | – | – | – | – | – | – | Number of individuals with delta PANSS ≦0% (non-worsening) [1, 5]: 25; Number of individuals with delta PANSS ≧0% (worsening symptoms) [1, 5]: 9; Worsening ([1]; Caucasian patients, OPRP Negative): 26%*; Number of individuals with delta PANSS ≦0% (non-worsening) [1, 6]: 0; Number of individuals with delta PANSS ≧0% (worsening symptoms) [1, 6]: 2; Worsening ([1]; Caucasian patients, OPRP Positive): 100%; DELTA PANSS % (mean change in PANSS score from baseline to LOCF) ([3]; Caucasian subjects, OPRP Negative): −13.1%; DELTA PANSS % (mean change in PANSS score from baseline to LOCF) ([3]; Caucasian subjects, OPRP Positive): 28%
Cc1cc2c(s1)Nc1ccccc1N=C2N1CCN(C)CC1 [Olanzapine] | greatest incidence of metabolic side-effects | 73 | 66 | 53%* | 1 | 25 | 4% | 113 | 26 | 19%* | 8 | 18 | 69% | −11.6% | 4.3% | Effect size, olanzapine-treated OPRP positive patients compared to various other OPRP-drug combinations ([3]; CATIE study, range over comparisons): 0.2 to 1.0; Mean difference in delta PANSS: olanzapine-treated OPRP positive group minus comparator group ([3]; comparator = olanzapine-treated OPRP negative subjects): 15.9; Effect size (mean difference / standard deviation) ([3]; olanzapine OPRP positive versus olanzapine OPRP negative): 1.0^a; Effect size (mean difference / standard deviation) ([3]; olanzapine OPRP positive versus olanzapine OPRP negative, listed as olanzapine): 1.0
OCCN1CCN(CCCN2c3ccccc3Sc3ccc(Cl)cc32)CC1 [Perphenazine] | – | 39 | 71 | 35%^+ | 5 | 7 | 42%^^ | 65 | 45 | 41%^+++ | 9 | 3 | 25%^ | −4.2^+++ % | −7.7^ % | Mean difference in delta PANSS: olanzapine-treated OPRP positive group minus comparator group ([3]; comparator = OPRP positive subjects treated with the labelled drug, positive = poorer response to olanzapine): 12; Effect size (mean difference / standard deviation) ([3]; olanzapine OPRP positive versus labelled drug OPRP positive): 0.7
